# Patent publication US12269825B2, “Organic compounds” (INTRA-CELLULAR THERAPIES, INC., priority 2014, dated 2025)
# Columns and labels:
# [1] = In-vivo metabolism after oral administration; conditions: oral administration to rats, dogs and humans
# Experimental: (§1) In addition, the in-vivo metabolism of the Compound of Formula Q is studied after oral administration to rats, dogs and humans. Plasma levels after administration are determined in all three species for the Compounds of Formula Q through T. The results of the studies indicate that metabolism of the Compound of Formula Q is rapid, and that the N-demethyl compounds are highly polar and excreted rapidly. Results of human plasma studies on day 8 after 7 day dosing (120 mg, 4 doses/day) with the Compound of Formula Q are shown below: […]
# CYP 3A4 = molecular target: T1, CYP 3A4 (Homo sapiens, UniProt P08684); test: In-vitro metabolism using subcellular fractions and isolated hepatocytes: N-demethylation; assay type: in vitro ADME
# T1 construct: from tissue
# From the text: (§2) The in-vitro metabolism of the Compound of the Formula Q and its metabolites is studied using subcellular fractions and isolated hepatocytes. […] These two reductions are both catalyzed in the reverse direction (oxidation) by CYP 3A4.
# [2] = Human plasma levels of Compounds Q through T after oral dosing with the Compound of Formula Q; assay type: in vivo; conditions: day 8 after 7 day dosing (120 mg, 4 doses/day) with the Compound of Formula Q
# Experimental: as §1
# ketone reductase = test: In-vitro metabolism using subcellular fractions and isolated hepatocytes: ketone reduction; assay type: in vitro ADME; conditions: forms Compounds of Formula S and T, respectively
# From the text: as §2
# T1 sequence (P08684 whole entry, species assumed): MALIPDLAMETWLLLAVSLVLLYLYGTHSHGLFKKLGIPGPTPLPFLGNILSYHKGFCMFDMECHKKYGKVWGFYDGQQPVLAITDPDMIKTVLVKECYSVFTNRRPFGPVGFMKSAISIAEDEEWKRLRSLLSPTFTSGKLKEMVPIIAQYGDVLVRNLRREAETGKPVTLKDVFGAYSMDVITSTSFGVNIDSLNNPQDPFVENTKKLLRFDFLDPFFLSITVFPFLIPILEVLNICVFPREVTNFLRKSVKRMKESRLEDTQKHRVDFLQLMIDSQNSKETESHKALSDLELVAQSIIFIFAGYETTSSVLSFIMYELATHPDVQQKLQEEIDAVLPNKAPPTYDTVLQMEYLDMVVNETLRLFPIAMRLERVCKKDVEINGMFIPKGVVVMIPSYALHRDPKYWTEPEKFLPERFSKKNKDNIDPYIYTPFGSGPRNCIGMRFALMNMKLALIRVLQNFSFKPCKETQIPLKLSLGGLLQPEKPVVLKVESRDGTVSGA
SMILES,rate of metabolism in vivo [1],metabolic route: N-demethylation (CYP 3A4),AUC [2] [µg·h/mL],Cmax [2] [µg/mL],Tmax [2] [h],metabolic route: ketone reduction (ketone reductase)
"CN1CCN2c3c(cccc31)[C@@H]1CN(CCCC(=O)c3ccc(F)cc3)CC[C@@H]12 [Compound Q, 4-((6bR,10aS)-3-methyl-2,3,6b,9,10,10a-hexahydro-1H-pyrido[3′,4′:4,5]pyrrolo[1,2,3-de]quinoxalin-8(7H)-yl)-1-(4-fluorophenyl)-1-butanone]",rapid,N-demethylated to the Compound of Formula R via the P450 cytochrome oxidase isoform 3A4 (CYP 3A4),0.347,0.078,2.5,undergo ketone reduction via the enzyme ketone reductase
O=C(CCCN1CC[C@H]2[C@@H](C1)c1cccc3c1N2CCN3)c1ccc(F)cc1 [Compound R],,,0.17,0.037,2.5,
CN1CCN2c3c(cccc31)[C@@H]1CN(CCCC(O)c3ccc(F)cc3)CC[C@@H]12 (stereo partly drawn) [Compound S],,,0.906,0.079,3.5,
OC(CCCN1CC[C@H]2[C@@H](C1)c1cccc3c1N2CCN3)c1ccc(F)cc1 (stereo partly drawn) [Compound T],,,0.517,0.038,6,
